Laboratory results published in patent publication US20130089591A1, “Compositions” (Givaudan SA, priority 2010, published 2013).

Experiments:
[1] = Water solubility of the aldehyde
[2] = Aggregation of polyurea capsules, Method 5.6; type: physicochemical; set-up: key: ∘: no aggregation of the capsules; +: aggregation of few capsules together only visible under microscopy; ++: aggregates of mm size; +++: important aggregation; ++++: aggregation is such that a cake is obtained; details: polyurea Method 5.6, phase A of Table 1; for Encapsulation, No precursor (scale of aggregation): free aldehyde as phase B; for Encapsulation, With precursor (scale of aggregation): precursor (Method 1.1) as phase B
Procedure: An oil phase was prepared when Desmodur VL R20 (Bayer) was added in perfume oil at a level of 2.5%.
An aqueous phase (Solution S1) was prepared when Mowiol 4-88 (Kururay) was added in water, at a level of 0.1%.
An aqueous phase (Solution S2) was prepared when diethylentriamine (Merck) was added in water, at a level of 2%.
100 g of oil phase was mixed with 250 g of solution S1, to form an oil-in-water emulsion, in a 500 mL vessel equipped with a propeller operating at 1000 rpm.
After 10 min of stirring, 50 g of solution S2 was added.
The slurry was stirred for 4 h at room temperature.
The Method 5.6 of Example 5 was applied to encapsulate different perfume oils described as phase A (non aldehyde raw materials) and phase B (aldehyde raw materials).
The composition of Phase A is described in Table 1. Phase B is an aldehyde perfume molecule used as such or as its precursor form prepared according to Method 1.1.
According to the aspect of the slurry a scale of aggregation has been defined as follow: […]
(§1) ∘ no aggregation of the capsules + aggregation of few capsules together only visible under microscopy ++ aggregates of mm size +++ important aggregation ++++ aggregation is such that a cake is obtained

[3] = Aggregation of polyurea capsules, Method 5.5; type: physicochemical; set-up: key: ∘: no aggregation of the capsules; +: aggregation of few capsules together only visible under microscopy; ++: aggregates of mm size; +++: important aggregation; ++++: aggregation is such that a cake is obtained; details: polyurea Method 5.5, phase A of Table 1; for Encapsulation, No precursor (scale of aggregation): free aldehyde as phase B; for Encapsulation, With precursor (scale of aggregation): precursor (Method 1.1) as phase B
Procedure: An oil phase was prepared when Desmodur W and Desmodur N3300 (Bayer) were added in perfume oil at a level of 2.2% and 13% respectively.
An aqueous phase (Solution S1) was prepared when Gantrez AN119 (ISP) was added to water, at a level of 1.6%. The solution was heated at 70° C. for 10 min to disperse the polymer.
An aqueous phase (Solution S2) was prepared when Ethylene diamine (Merck) was added to water, at a level of 7.5%.
30 g of the oil phase was mixed with 80 g of solution S1, to form an oil-in-water emulsion, in a 250 mL vessel equipped with a propeller operating at 1000 rpm.
After 10 min of stirring, 20 g of solution S2 was added.
The slurry was stirred for 30 min at room temperature, then heated to 60° C. and stirred for 3 H at 60° C. before cooling.
The Method 5.5 of Example 5 was applied to encapsulate different perfume oils described as phase A (non aldehyde raw materials) and phase B (aldehyde raw materials).
The composition of Phase A was described in Table 1 above. Phase B is an aldehyde perfume molecule used as such or as its precursor form prepared according to Method 1.1.
According to the aspect of the slurry a scale of aggregation was defined as follow: […]
as §1
Phase B was added at a level of 20% of aldehyde in phase A.

[4] = Aggregation of polyurea capsules, Method 5.1; type: physicochemical; details: for Encapsulation (aggregation): free aldehyde at 5% in IPM
Procedure: An oil phase was prepared by adding Desmodur W (Isocyanate from Bayer) to a perfume oil at a level of 16.6%.
An aqueous phase (solution S1) was prepared by adding Luviskol k90 (BASF) to water, at a level of 4.5%. The pH of the solution was adjusted to 11.5 by addition of NaOH at 10%.
An aqueous phase (Solution S2) was prepared when Lupasol PR8515 (BASF) was added to water, at a level of 10%.
300 g of the oil phase was mixed with 500 g of solution S1, to form an oil-in-water emulsion, in a 1 L reactor equipped with a MIG stirrer operating at 1000 rpm.
After 30 minutes of mixing, 200 g of solution S2 was added over a period of 1 minute.
After 30 minutes, the slurry was heated up to 70° C. (1 H), then kept for 2 H at 70° C., then heated to 80° C. and kept for 1 H at 80° C., then heated to 85° C. and kept for 1 H at 85° C., then cooled to 70° C. and kept for 1 H at 70° C. before final cooling at 25° C.
The Method 5.1 of Example 5 was applied to encapsulate different perfume oils described as phase A (non aldehyde raw materials) and phase B (aldehyde raw materials).
In the following trials, phase A was IPM and phase B was aldehyde perfume molecules. Phase B was added at a level of 5% in phase A.
Phase B contains aldehyde C11 iso or the corresponding precursor prepared according to Method 1.1.
Phase B was added at a level of 5% in phase A.

[5] = Aggregation of polyamide capsules (Example 2 method); type: physicochemical; set-up: key to Encapsulation, No precursor (scale of aggregation) / Encapsulation, With precursor (scale of aggregation): ∘: no aggregation of the capsules; +: aggregation of few capsules together only visible under microscopy; ++: aggregates of mm size; +++: important aggregation; ++++: aggregation is such that a cake is obtained; details: for Encapsulation, No precursor (scale of aggregation): free aldehyde as phase B at 5% in phase A of Table 1; for Encapsulation, With precursor (scale of aggregation): precursor of the aldehyde (Method 1.1) as phase B at 5% in phase A of Table 1
Procedure: An oil phase was prepared by dissolving isophtahaloyl dichloride (Fluka) in oil (oil composition specified in the examples below) at a level of 10%
An aqueous solution (Solution S1) was prepared by dissolving a polyvinyl alcohol Mowiol 4-88 (Kuru ray) in water at a level of 1%.
An aqueous solution (Solution S2) was prepared when triethylentetraamine (Hunstman) was diluted in water at a level of 3%.
100 g of the oil phase was mixed with 450 g of solution S1 to form an oil-in-water emulsion in a 1 L reactor equipped with a MIG stirrer operating at 1000 rpm. After 5 minutes of mixing, 450 g of solution S2 was slowly added. The resultant slurry of polyamide capsules was kept under stirring for 2 H.
Two capsule populations were formed. A first encapsulating IPM (isopropyl myristate) and a second containing IPM+5% of ethyl vaniline. The capsules were made according to the method of Example 2.
The methodology of Example 2 was applied to encapsulate different perfume oils described as phase A (non aldehyde raw materials) and phase B (aldehyde raw materials).
The phase B was added at 5% to the phase A prior to encapsulation. Different compositions of phase B have been used corresponding each time to a single aldehyde perfume molecule or to its precursor formed according to the methodology of Method 1.1, above.
According to the condition of the slurry a scale of aggregation has been defined as follows: […]
as §1

| Compound | Water solubility ([1]; Table of Example 13) [ppm] | Encapsulation, No precursor (scale of aggregation) [2] | Encapsulation, With precursor (scale of aggregation) [2] | also measured |
| --- | --- | --- | --- | --- |
| CC(CC=O)CCCC(C)(C)O (stereo not drawn) [Hydroxycitronellal] | 1800 | +++ | ∘ | Water solubility ([1]; Table 3): 1800 ppm; Water solubility ([1]; Table of Example 11): 1800 ppm; Encapsulation, No precursor (scale of aggregation) [3]: ++++; Encapsulation, With precursor (scale of aggregation) [3]: ∘; Encapsulation (aggregation) [4]: Aggregation |
| C/C(C=O)=C\c1ccccc1 [Methyl cinnamic ald] | 580 | ∘ | ∘ | – |
| CC1(C)C2CC=C(CCC=O)C1C2 (stereo not drawn) [Pino acetaldehyde] | 86 | ++++ | ∘ | – |
| CC(C)c1cccc(C(C)CC=O)c1 (stereo not drawn) [Florhydral] | – | – | – | Water solubility ([1]; Table 3): 51 ppm; Encapsulation (aggregation) [4]: Aggregation |
| CC(C=O)c1ccccc1 (stereo not drawn) [Hydratropic ald] | 650 | + | + | – |
| CCCCCCCCCC=O [Aldehyde C10] | 61 | ++++ | ∘ | Water solubility ([1]; Table 2): 61 ppm; Water solubility ([1]; Table 3): 61 ppm; Water solubility ([1]; Table of Example 11): 61 ppm; Encapsulation, No precursor (scale of aggregation) [3]: +++; Encapsulation, With precursor (scale of aggregation) [3]: ∘; Encapsulation, No precursor (scale of aggregation) [5]: +++; Encapsulation, With precursor (scale of aggregation) [5]: +; Encapsulation (aggregation) [4]: Aggregation |
| CC(C)(O)CCCC1=CCC(C=O)CC1 (stereo not drawn) [Cyclohexal] | – | ∘ | ∘ | – |
| COc1ccc(C=O)cc1 [Aubepine para cresol] | – | – | – | Water solubility ([1]; Table 2): 6 ppm; Encapsulation, No precursor (scale of aggregation) [5]: ++; Encapsulation, With precursor (scale of aggregation) [5]: ∘ |
| CC(CC=O)CC(C)(C)C (stereo not drawn) [Ald C9 isononylic] | 160 | +++ | ∘ | – |
| CC(C)=CCCC(C)C=O (stereo not drawn) [Melonal, 2,6-dimethyl-5-heptenal] | 344 | ++++ | ∘ | – |
| CCCCCCCCCC(C)C=O (stereo not drawn) [Aldehyde C12 mna] | – | ∘ | ∘ | Encapsulation, No precursor (scale of aggregation) [3]: ∘; Encapsulation, With precursor (scale of aggregation) [3]: ∘; Encapsulation, No precursor (scale of aggregation) [5]: ++; Encapsulation, With precursor (scale of aggregation) [5]: ∘ |
| CC(CC=O)CCc1ccccc1 (stereo not drawn) [Mefranal] | 100 | ∘ | ∘ | – |
| Aldehyde iso C11 | – | – | – | Water solubility ([1]; Table 2): 30 ppm; Encapsulation, No precursor (scale of aggregation) [5]: +++; Encapsulation, With precursor (scale of aggregation) [5]: +; Slurry aspect ([4]; phase B at 5% in phase A of Table 4, listed as Aldehyde C11 iso): Cake; Slurry aspect ([4]; phase B at 5% in phase A of Table 4, listed as aldehyde C11 iso): aggregate |
| CC(C)c1ccc(C=O)cc1 [Cuminic ald] | 280 | ++ | ∘ | – |
| O=C/C=C/c1ccccc1 [Cinnamic ald] | 1900 | + | ∘ | – |
| COC1CC2CC1C1CC(C=O)CC21 (stereo not drawn) [Scentenal] | – | ++ | ∘ | – |
| CCOc1cc(C=O)ccc1O [ethyl vaniline] | – | – | – | Aggregation, microscopic examination ([5]; IPM + 5% aldehyde): significant aggregation |
| CC1(C)CCCC2=C1CC(C=O)CC2 (stereo not drawn) [Cyclomyral] | – | ∘ | ∘ | – |
| CCCCCC=O [Capronaldehyde (hexanal)] | – | ++++ | ∘ | – |
| CCCCCCCCCCCC=O [Aldehyde C12 laurique] | – | ++++ | ∘ | Encapsulation, No precursor (scale of aggregation) [3]: ++; Encapsulation, With precursor (scale of aggregation) [3]: ∘; Encapsulation, No precursor (scale of aggregation) [5]: +++; Encapsulation, With precursor (scale of aggregation) [5]: ∘; Encapsulation (aggregation) [4]: Aggregation |
| CCCCCC/C(C=O)=C\c1ccccc1 [Hexyl cinnamic ald] | 2 | + | ∘ | – |
